From BindingDB's records for doi:10.7270/Q2T15221 (Nmmlsc, 2010)

Target: Ras-related protein Rab-2A (Canis lupus familiaris, UniProt P61105)
Test: Rab2 wildtype GTP-binding inhibitors, dose response, biochemical, GST-Rab2 beads, Bodipy-FL-GTP, flow cytometry, multiplex (AID 1337)

Chain of Ras-related protein Rab-2A (P61105 whole entry): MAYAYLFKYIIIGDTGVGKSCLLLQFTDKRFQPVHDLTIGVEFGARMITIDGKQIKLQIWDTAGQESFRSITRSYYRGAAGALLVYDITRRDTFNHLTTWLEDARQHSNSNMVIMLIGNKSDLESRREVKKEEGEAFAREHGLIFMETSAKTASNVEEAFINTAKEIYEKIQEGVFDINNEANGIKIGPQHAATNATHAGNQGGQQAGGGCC

| Structure (SMILES) | EC50 [µM] |
| --- | --- |
| OC(CNCCc1c[nH]c2ccccc12)Cn1c2ccc(Cl)cc2c2cc(Cl)ccc21 (stereo not drawn) [1-(3,6-dichloro-9-carbazolyl)-3-[2-(3H-indol-3-yl)ethylamino]-2-propanol] | 26.3 |
| Cc1nn(Cc2ccccc2)c(Cl)c1C(=O)O [1-benzyl-5-chloro-3-methyl-pyrazole-4-carboxylic acid] | 4.88 |
| O=C(O)c1ccccc1NCCc1ccc(Cl)cc1 [2-[2-(4-chlorophenyl)ethylamino]benzoic acid] | 0.741 |
| Cc1ccc(C2=NN(S(=O)(=O)c3ccccc3)C(c3ccccc3O)C2)cc1 (stereo not drawn) [2-[2-(benzenesulfonyl)-5-(4-methylphenyl)-3,4-dihydropyrazol-3-yl]phenol] | 1.69 |
| CC(C)C(NCc1c(Cl)cccc1Cl)C(=O)O (stereo not drawn) [2-[(2,6-dichlorobenzyl)amino]-3-methyl-butyric acid] | 5.37 |
| COc1ccc(C2CC(c3ccccc3)=NN2c2ccc(S(N)(=O)=O)cc2)cc1 (stereo not drawn) [4-[3-(4-methoxyphenyl)-5-phenyl-3,4-dihydropyrazol-2-yl]benzenesulfonamide] | 0.704 |
| COc1ccc(-c2cc(C#N)nc(N3CCNCC3)n2)cc1 [6-(4-Methoxy-phenyl)-2-piperazin-1-yl-pyrimidine-4-carbonitrile] | 30.9 |
| O=C1C([N+](=O)[O-])=Cc2oc3c(c2C1/C=N/Cc1ccccc1)CCCC3 (stereo not drawn) [(1Z)-3-nitro-1-[[(phenylmethyl)amino]methylidene]-6,7,8,9-tetrahydrodibenzofuran-2-one] | 4.02 |
| CCOc1ccc(/C=C2\SC(N3CCc4ccccc4C3)=NC2=O)cc1 [(5Z)-2-(3,4-dihydro-1H-isoquinolin-2-yl)-5-(4-ethoxybenzylidene)-2-thiazolin-4-one] | 35.9 |
| CCCN1C(=O)/C(=C/C=C2\N(CC)c3ccccc3C2(C)C)SC1=S [(5Z)-5-[(2Z)-2-(1-ethyl-3,3-dimethyl-2-indolylidene)ethylidene]-3-propyl-2-sulfanylidene-4-thiazolidinone] | 5.42 |
| O=C(O)/C=C/c1cn(Cc2ccccc2)nc1-c1cccs1 [(E)-3-(1-benzyl-3-thiophen-2-ylpyrazol-4-yl)prop-2-enoic acid] | 3.64 |
| N=C(N)NS(=O)(=O)c1ccc(NC(=S)NC(=O)c2ccc3c(c2)OCO3)cc1 [MLS000621545] | 0.738 |

Continued, values first:

| EC50 [µM] | Structure (SMILES) |
| --- | --- |
| 2.76 | O=C(O)c1ccccc1Sc1ncnc2sc3c(c12)CCC3 |
| 6.26 | Cc1cc(C)c(C)c(C(=O)c2ccccc2C(=O)O)c1C [2-(2,3,5,6-tetramethylbenzoyl)benzoic acid] |
| 1.99 | COC(=O)c1c(-n2c(O)c3c(c2O)[C@]2(C(=O)Nc4c(C)cc(C)cc42)N2CCC[C@@H]32)sc(C)c1C [2-[(3S,3'aR,8'aS,8'bS)-5,7-dimethyl-1',2,3'-trioxo-2'-spiro[1H-indole-3,4'-3a,6,7,8,8a,8b-hexahydropyrrolo[3,4-a]pyrrolizine]yl]-4,5-dimethyl-3-thiophenecarboxylic acid methyl ester] |
| 3.45 | Cc1ccccc1NC(=O)C1CCCN1S(=O)(=O)c1cccc2cccnc12 (stereo not drawn) [MLS000119085] |
| 2.67 | CCS(=O)(=O)N1N=C(c2cccc(NS(C)(=O)=O)c2)CC1c1ccc(C)cc1 (stereo not drawn) [MLS000680398] |
| 0.851 | COCCn1c(=S)[nH]c2cc(C(=O)N3CCc4ccccc4C3)ccc2c1=O [SMR000310652] |
